Reference: patent US8916516B2, “Treatment of fungal and/or protist infections” (AI2 Limited, priority 2005, dated 2014)

Assays:
P. berghei sporozoites = assay: Sporozoite development assay in Hepa 1-6 cells (Example 5); assay type: cell-based, Plasmodium berghei; conditions: for inhibition of entry of P. berghei into Hep 1-6 cells: sporozoites pre-incubated with polypeptide at 50 μg/ml, plated on cells with peptide present, FIG. 5(A)
Method: 3-5 day-old Anopheles stephensi mosquitoes were fed on anesthetized P. berghei (NK65)-infected Swiss Webster mice which had been checked by blood smear for the abundance of gametocyte-stage parasites. Salivary gland sporozoites were harvested on days 18 to 21 post-infective blood meal. The mosquitoes were rinsed in 70% ethanol and washed in Dulbecco's Modified Eagle Medium (DMEM) before salivary gland dissection. The glands were gently ground, spun at 80×g for 3 min to remove mosquito debris and sporozoites counted in a hemocytometer.
Hepa 1-6 cells (ATCC CRL-1830, American Type Culture Collection, Manassas, Va.), a mouse hepatoma cell line permissive for P. berghei sporozoite development were seeded (8×10^4 cells/well) in Lab-Tek permanox chamber slides (Nalgene Nunc Corp., Naperville, Ill.) and grown until confluent. On the day of the experiment, sporozoites were dissected from mosquitoes and pre-incubated with Dulbecco's Modified Eagle Medium (DMEM; Invitrogen, Carlsbad, Calif.) with 1% BSA alone or with the indicated polypeptide at 50 μg/ml for 1 hr at 28° C. and plated on cells in the continued presence of the inhibitor in DMEM containing 10% fetal calf serum (complete medium). After 1 hr at 37° C., the medium containing unattached sporozoites and polypeptide was removed and replaced with complete medium. […] The number of EEFs in each well were counted with a 40× objective on a Nikon fluorescent microscope. In other experiments, Hepa1-6 cells were pretreated with the polypeptides at 50 μg/ml in complete medium for 1 hour, washed and then sporozoites were added in complete medium without polypeptide and the assay was continued as outlined above.

[1] = test system: Staphylococcus aureus (Oxford strain); assay: microbe, parasite or virus in culture; assay type: cell-based; conditions: Oxford strain, 24 h
Method: (§1) Four compounds were supplied as an aqueous solution, 400 μM. Serial dilutions of each test peptide were prepared in addition to a control, which was a conventional antifungal drug, Amphoteracin B. Amphteracin B is obtained from Invitrogen or Melford laboratories.
(§2) Initial testing of the peptides was carried out against the following organisms: • 1) Aspergillus fumigatus AF293 (culture collection strain NCPF7367) • 2) Candida albicans 6862 (clinical isolate) • 3) Fusarium spp 5889 (clinical isolate) • 4) Fusarium spp 6507 (clinical isolate) • 5) Aspergillus terreus (clinical isolate) • 6) Aspergillus niger (clinical isolate) • 7) Staphylococcus aureus (Oxford strain, which is a standard reference strain used in MIC testing)
(§3) The bacterium S. aureus was tested with each of the peptides as a control. A suspension of each organism in an appropriate growth medium was added to the, dilutions of the peptides in order to give concentration ranges of 40 μM to 0.04 μM for each of the peptides, and 64-0.025 μg/ml for amphotericin B. Fungal strains were tested in RPMI media. RPMI is standard Roswell Park Memorial Institute medium (Morton, H. C., (1970) A survey of Commercially Available Tissue Culture Media. In Vitro 6: 89-108).
S. aureus was tested in Isosensitest broth. Isosentitest agar is a standard MIC medium used by many hospital labs for bacterial MICs using a disc diffusion method. The reference standard is Oxoid CM471. Also available in broth form, CM473, for the bacterial broth dilution assay method. NCCLS ref M7-A4. Both the NCCLS methods quoted are the standard methods.
(§4) The final inoculum for S. aureus was 5×10^4 cfu/ml. The final inoculum for C. albicans was 2×10^3 cfu/ml. The final inoculum for Aspergillus fumigatus and for Fusarium spp was 2×10^4 cfu/ml.
(§5) Candida and S. aureus plates were read after 24 hrs incubation and the Aspergillus and Fusarium strains read after 48 hrs. The MIC was taken as the lowest drug or compound concentration that caused >80% reduction in growth compared with a drug free control.

[2] = test system: Acanthamoeba polyphaga (trophozoites), Ros strain; assay: Microtitre plate assay against Acanthamoeba trophozoites (Example 2); assay type: cell-based; conditions: for MATC = minimum amoebacidal trophozoite concentration: lowest concentration killing the trophozoite challenge
Text: The test compounds were screened against the trophozoites of clinical isolates of Acanthamoeba spp. using a microtitre plate assay procedure. The organisms were Acanthamoeba polyphaga. (see for details on the strain and methodology used: Hughes, R. & Kilvington, S. (2001). A comparison of hydrogen peroxide contact lens disinfection systems and solutions against Acanthamoeba polyphaga. Antimicrob. Agents Chemother. 45: 2038-2043.) Acanthamoeba polyphaga Ros strain was used throughout the study. The strain was originally isolated from an unpublished case of acanthamoeba keratitis in the United Kingdom in 1994.
Use of the microliter plate assay enabled the determination of the minimum amoebacidal trophozoite concentration (MATC), which is the minimum amoebacidal trophozoite concentration (μg/ml)=lowest concentration killing the trophozoite challenge […] and also the minimum inhibitory trophozoite concentration (MITC), which is the minimum inhibitory trophozoite concentration (μg/ml)=lowest concentration stopping the trophozoites from dividing or killing about 50% of population. The values may then be used to select drug concentrations for use in time-kill experiments to study the kinetics of Acanthamoeba killing.

Fusarium solani 4 (FS4) = assay: Antifungal MIC (Example 4); assay type: cell-based; conditions: Fusarium solani 4; peptides; Tables 4 and 5
Method: (§6) The inventor expanded the work conducted in Example 1 by testing an expanded library of peptides derived from either apolipoprotein B or apolipoprotein E in order to further evaluate polypeptides in accordance with the invention. These experiments were conducted using the following fungal species:
(§7) FS1-FS4 were obtained from Bristol PHLS (British Public Health Laboratory Service UK). Aspergillus fumigatus 293 is publicly available as culture collection strain NCPF7367 (National Collection of Pathogenic Fungi Public Health Laboratory, Mycological Reference Laboratory Myrtle Road, Kingsdown, Bristol BS2 8EL) The Candida albicans was a clinical isolate obtained by standard means.
(§8) The methods used to determine, the IC50 values for each peptide were as described in the Example 1.

[3] = test system: Fusarium spp 5889 (clinical isolate); assay: Antifungal MIC broth dilution (Example 1); assay type: cell-based; conditions: RPMI, 48 hrs, >80% reduction
Method: as §1, §2, §3, §4, §5

[4] = test system: Fusarium spp 6507 (clinical isolate); assay: Antifungal MIC broth dilution (Example 1); assay type: cell-based; conditions: RPMI, 48 hrs, >80% reduction
Method: as §1, §2, §3, §4, §5

[5] = test system: Aspergillus fumigatus AF293 (NCPF7367); assay: microbe, parasite or virus in culture; assay type: cell-based; conditions: for MIC: AF293 (NCPF7367, 48 h); for MIC values (>80% reduction) AF: Aspergillus fumigatus 293, peptides, Tables 4 and 5
Method: as §1, §2, §3, §4, §5
Aspergillus fumigatus 293 (AF); and
as §7, with “means. […]” for “means.”

[6] = test system: Aspergillus terreus (clinical isolate); assay: microbe, parasite or virus in culture; assay type: cell-based
Method: as §1, §2, §3, §5

[7] = test system: Aspergillus niger (clinical isolate); assay: microbe, parasite or virus in culture; assay type: cell-based; conditions: clinical isolate
Method: as §1, §2, §3, §5

Fusarium solani 1 (FS1) = assay: Antifungal MIC (Example 4); assay type: cell-based; conditions: Fusarium solani 1; peptides; Tables 4 and 5
Method: as §6, §7, §8

[8] = test system: Candida albicans 6862 (clinical isolate); assay: microbe, parasite or virus in culture; assay type: cell-based; conditions: 6862 (clinical isolate, 24 h)
Method: as §1, §2, §3, §4, §5

Fusarium solani 3 (FS3) = assay: Antifungal MIC (Example 4); assay type: cell-based; conditions: Fusarium solani 3; peptides; Tables 4 and 5
Method: as §6, §7, §8

Fusarium solani 2 (FS2) = assay: Antifungal MIC (Example 4); assay type: cell-based; conditions: Fusarium solani 2; peptides; Tables 4 and 5
Method: as §6, §7, §8

[9] = test system: Candida albicans (CA), clinical isolate; assay: Antifungal MIC (Example 4); assay type: cell-based; conditions: peptides, Tables 4 and 5
Method: as §6, §7, §8

bacteria = conditions: reported by Azuma et al., Peptides 21: 327-330 (2000); cited from earlier work
fungi = assay type: cell-based; conditions: fungus not specified; read-out: IC50 value for inhibiting fungal growth
Method: as §1, §2
The bacterium S. aureus was tested with each of the peptides as a control. […] RPMI is standard Roswell Park Memorial Institute medium (Morton, H. C., (1970) A survey of Commercially Available Tissue Culture Media. In Vitro 6: 89-108).
as §5, §8

Row | Substance | inhibition of entry of P. berghei into Hep 1-6 cells (P. berghei sporozoites) | MIC [1] | MATC = minimum amoebacidal trophozoite concentration [2] | MIC values (>80% reduction) FS4 (Fusarium solani 4 (FS4)) | MIC [3] | MIC [4] | MIC [5] | MIC values (>80% reduction) AF [5] | MIC [6] | MIC [7] | MIC values (>80% reduction) FS1 (Fusarium solani 1 (FS1)) | MIC [8] | MIC values (>80% reduction) FS3 (Fusarium solani 3 (FS3)) | MIC values (>80% reduction) FS2 (Fusarium solani 2 (FS2)) | MIC values (>80% reduction) CA [9] | antibacterial activity (in words) (bacteria) | block of P. berghei entry after pretreatment of cells (P. berghei sporozoites; cells treated with peptide at 50 μg/ml for 1 hour, washed, then sporozoites added, FIG. 5(B)) | MITC = minimum inhibitory trophozoite concentration ([2]; lowest concentration stopping trophozoites dividing or killing about 50% of population) | IC50 (fungi)
1 | Ac-LRKLRKRLLLRKLRKRLL-NH2 [MU_10] | inhibit entry of P. berghei into Hep 1-6 cells | >40 µM | 207.1 µM | 5 µM | 10 µM | >40 µM | >40 µM | >40 µM | >40 µM | >40 µM | 2.5 µM | >40 µM | 2.5 µM | 5 µM | >40 µM | – | – | – | –
2 | apoE134-151: Azuma's apolipoprotein E peptide, 18 amino acids in length (RVRLASHLRKLRKRLLRD; UniProt P02649 152-169, looked up, fragment) | – | – | – | – | – | – | – | – | – | – | – | – | – | – | – | no activity at all | – | – | –
3 | Ac-WRKWRKRWWWRKWRKRWW-NH2 [MU_4] | inhibit entry of P. berghei into Hep 1-6 cells | 5 µM | 41.7 µM | 0.3 µM | 2.5 µM | 10 µM | 2.5 µM | 1.25 µM | >40 µM | 1.25 µM | 0.3 µM | 10 µM | 0.3 µM | 0.3 µM | 2.5 µM | – | retained its ability to block P. berghei entry | 20.8 µM | ≤ 2500 nM
4 | apoE134-155: Azuma's apolipoprotein E peptide, 22 amino acids in length (RVRLASHLRKLRKRLLRDADDL; UniProt P02649 152-173, looked up, fragment) | – | – | – | – | – | – | – | – | – | – | – | – | – | – | – | very low antibacterial activity | – | – | –
5 | apoE134-159: Azuma's apolipoprotein E peptide, 26 amino acids in length (RVRLASHLRKLRKRLLRDADDLQKRL; UniProt P02649 152-177, looked up, fragment) | – | – | – | – | – | – | – | – | – | – | – | – | – | – | – | greatly reduced antibacterial activity | – | – | –
